Laboratory results: the supplement of paper PMC13380429

Legend:
[1] = system: A549-ACE2 infected with SARS-CoV-2; assay: cell count relative to DMSO; higher = less toxic; details: 24 h
A549-ACE2 [2] = assay: phospholipidosis EC50; higher = less potent phospholipidosis inducer
A549-ACE2 [3] = assay: drug-induced phospholipidosis relative to tamoxifen; higher = more phospholipidosis
Caco-2 [4] = assay: cell viability relative to DMSO; higher = less toxic; details: 72 h
Vero E6 [5] = assay: as above; details: 72 h
U2OS [6] = assay: as above; details: 72 h
Calu-3 [7] = assay: as above; details: 72 h
HepG2 [8] = assay: as above; details: 72 h
[9] = system: A549-ACE2 infected with SARS-CoV-2; assay: morphology score (similarity to uninfected cells); higher = more like uninfected cells; details: 24 h
Caco-2 [10] = assay: relative viability EC50 (midpoint between 100% and the lowest measured viability); higher = less toxic; details: 72 h
Caco-2 [11] = assay: drug sensitivity score (DSS) for viability; higher = more toxic; extreme values may be limits of the assay; details: 72 h
Vero E6 [12] = assay: as above; details: 72 h
U2OS [13] = assay: as above; details: 72 h
Calu-3 [14] = assay: as above; details: 72 h
HepG2 [15] = assay: as above; details: 72 h
[16] = system: A549-ACE2 infected with SARS-CoV-2; assay: SARS-CoV-2 infection rate relative to DMSO; higher = more infection; details: 24 h
Vero E6 [17] = assay: relative viability EC50 (midpoint between 100% and the lowest measured viability); higher = less toxic; details: 72 h
U2OS [18] = assay: as above; details: 72 h
Calu-3 [19] = assay: as above; details: 72 h
HepG2 [20] = assay: as above; details: 72 h

CN1C2CCC1CC(OC(c1ccccc1)c1ccc(Cl)cc1)C2 (stereo unspecified) [3-CPMT]
Details	SARS-CoV-2 infection rate [%]	cell count [%]	cell viability [%]	morphology score	phospholipidosis EC50 [µM]
A549-ACE2 [2], 24 h	–	–	–	–	3.84
A549-ACE2 [2], 48 h	–	–	–	–	4.5
A549-ACE2 [2], 72 h	–	–	–	–	4.56
Caco-2 [4], 1 nM	–	–	94.2	–	–
Caco-2 [4], 10 nM	–	–	89.7	–	–
Caco-2 [4], 100 nM	–	–	91.5	–	–
Caco-2 [4], 1000 nM	–	–	94.9	–	–
Caco-2 [4], 10000 nM	–	–	76.4	–	–
Calu-3 [7], 1 nM	–	–	107	–	–
Calu-3 [7], 10 nM	–	–	109	–	–
Calu-3 [7], 100 nM	–	–	106	–	–
Calu-3 [7], 1000 nM	–	–	91.3	–	–
Calu-3 [7], 10000 nM	–	–	55.1	–	–
HepG2 [8], 1 nM	–	–	99.3	–	–
HepG2 [8], 10 nM	–	–	110	–	–
HepG2 [8], 100 nM	–	–	97.6	–	–
HepG2 [8], 1000 nM	–	–	98.6	–	–
HepG2 [8], 10000 nM	–	–	59.5	–	–
U2OS [6], 1 nM	–	–	104	–	–
U2OS [6], 10 nM	–	–	96.9	–	–
U2OS [6], 100 nM	–	–	100	–	–
U2OS [6], 1000 nM	–	–	97.1	–	–
U2OS [6], 10000 nM	–	–	72.6	–	–
Vero E6 [5], 1 nM	–	–	93.5	–	–
Vero E6 [5], 10 nM	–	–	97.3	–	–
Vero E6 [5], 100 nM	–	–	94.5	–	–
Vero E6 [5], 1000 nM	–	–	96.6	–	–
Vero E6 [5], 10000 nM	–	–	70.6	–	–
[1], 0.1 µM	–	105	–	–	–
[1], 0.3 µM	–	99	–	–	–
[1], 1 µM	–	116	–	–	–
[1], 3 µM	–	123	–	–	–
[9], 0.1 µM	–	–	–	-0.03	–
[9], 0.3 µM	–	–	–	-0.04	–
[9], 1 µM	–	–	–	0.58	–
[9], 3 µM	–	–	–	0.88	–
[16], 0.1 µM	108	–	–	–	–
[16], 0.3 µM	96	–	–	–	–
[16], 1 µM	74	–	–	–	–
[16], 3 µM	32	–	–	–	–

drug-induced phospholipidosis [%], A549-ACE2 [3]
Details	0.3 µM	0.833333 µM	3.33333 µM	6.66667 µM	10 µM	30 µM
24 h	4.71	3.97	55.2	83.2	94.4	114
48 h	7.06	3.72	51.9	88.1	103	126
72 h	7.88	7.28	40	85.2	102	–

Details	drug sensitivity score	relative viability EC50 [µM]
Caco-2 [10]	–	> 10
Caco-2 [11]	1.3	–
Calu-3 [14]	3.7	–
HepG2 [15]	2.2	–
U2OS [13]	1.6	–
Vero E6 [12]	1.8	–

CCN(CC)CCOc1ccc(C(O)(Cc2ccc(Cl)cc2)c2ccc(C)cc2)cc1 (stereo unspecified) [Triparanol]
Details	morphology score, 0.1 µM	morphology score, 0.3 µM	morphology score, 1 µM	morphology score, 3 µM	phospholipidosis EC50, 24 h [µM]	phospholipidosis EC50, 48 h [µM]	phospholipidosis EC50, 72 h [µM]
A549-ACE2 [2]	–	–	–	–	2.19	2.74	3.71
[9]	0.02	-0.17	0.22	0.85	–	–	–

Details	drug sensitivity score
Calu-3 [14]	5.5
HepG2 [15]	6.4
U2OS [13]	1.3
Vero E6 [12]	0.7

CCCc1cc(C)[nH]c(=O)c1CNC(=O)c1cc(-c2ccc(N3CCN(C(C)C)CC3)nc2)cc2c1cnn2C(C)C [UNC1999]
Details	SARS-CoV-2 infection rate, [16] [%]	cell count, [1] [%]	cell viability, Caco-2 [4] [%]	cell viability, Calu-3 [7] [%]	cell viability, HepG2 [8] [%]	cell viability, U2OS [6] [%]	cell viability, Vero E6 [5] [%]	morphology score, [9]
1 nM	–	–	107	94.2	109	99.1	95.6	–
10 nM	–	–	103	103	100	102	94.6	–
100 nM	–	–	97.6	96.5	93.3	99.3	95.2	–
0.3 µM	100	103	–	–	–	–	–	0.06
1000 nM	–	–	96.9	91.4	99.6	107	84.7	–
3 µM	87	109	–	–	–	–	–	0.43
10 µM	29	119	–	–	–	–	–	0.8
10000 nM	–	–	83.9	89.4	88.7	102	107	–
30 µM	13	121	–	–	–	–	–	0.6

drug-induced phospholipidosis [%], A549-ACE2 [3]
Details	0.3 µM	0.833333 µM	3.33333 µM	6.66667 µM	10 µM	30 µM
24 h	15.7	-2.03	5.96	5.07	18.5	38.5
48 h	6.9	-2.52	5.26	6.51	17.6	36.4
72 h	1.41	-4.2	4.48	4.14	13.9	37

Details	drug sensitivity score	relative viability EC50 [µM]
Caco-2 [10]	–	> 10
Caco-2 [11]	0.6	–
Calu-3 [14]	0.1	–
Calu-3 [19]	–	> 10
HepG2 [15]	0	–
HepG2 [20]	–	> 10
U2OS [13]	0	–
U2OS [18]	–	> 10
Vero E6 [12]	0	–
Vero E6 [17]	–	> 10

CN1CCCC(CN2c3ccccc3Sc3ccccc32)C1 (stereo unspecified) [mepazine]
Details	SARS-CoV-2 infection rate [%]	cell count [%]	cell viability [%]	morphology score	phospholipidosis EC50 [µM]
A549-ACE2 [2], 24 h	–	–	–	–	3.88
A549-ACE2 [2], 48 h	–	–	–	–	6.39
A549-ACE2 [2], 72 h	–	–	–	–	9.51
Caco-2 [4], 1 nM	–	–	94.1	–	–
Caco-2 [4], 10 nM	–	–	98.3	–	–
Caco-2 [4], 100 nM	–	–	98.2	–	–
Caco-2 [4], 1000 nM	–	–	101	–	–
Caco-2 [4], 10000 nM	–	–	85.7	–	–
Calu-3 [7], 1 nM	–	–	106	–	–
Calu-3 [7], 10 nM	–	–	99.2	–	–
Calu-3 [7], 100 nM	–	–	99.3	–	–
Calu-3 [7], 1000 nM	–	–	99.5	–	–
Calu-3 [7], 10000 nM	–	–	72.8	–	–
HepG2 [8], 1 nM	–	–	98.3	–	–
HepG2 [8], 10 nM	–	–	102	–	–
HepG2 [8], 100 nM	–	–	100	–	–
HepG2 [8], 1000 nM	–	–	87.9	–	–
HepG2 [8], 10000 nM	–	–	84.8	–	–
U2OS [6], 1 nM	–	–	99.1	–	–
U2OS [6], 10 nM	–	–	98.6	–	–
U2OS [6], 100 nM	–	–	98.6	–	–
U2OS [6], 1000 nM	–	–	100	–	–
U2OS [6], 10000 nM	–	–	91.4	–	–
Vero E6 [5], 1 nM	–	–	101	–	–
Vero E6 [5], 10 nM	–	–	101	–	–
Vero E6 [5], 100 nM	–	–	103	–	–
Vero E6 [5], 1000 nM	–	–	97.1	–	–
Vero E6 [5], 10000 nM	–	–	94.8	–	–
[1], 0.3 µM	–	103	–	–	–
[1], 3 µM	–	112	–	–	–
[1], 10 µM	–	122	–	–	–
[1], 30 µM	–	113	–	–	–
[9], 0.3 µM	–	–	–	0.02	–
[9], 3 µM	–	–	–	0.61	–
[9], 10 µM	–	–	–	0.86	–
[9], 30 µM	–	–	–	0.32	–
[16], 0.3 µM	102	–	–	–	–
[16], 3 µM	59	–	–	–	–
[16], 10 µM	16	–	–	–	–
[16], 30 µM	27	–	–	–	–

drug-induced phospholipidosis [%], A549-ACE2 [3]
Details	0.3 µM	0.833333 µM	3.33333 µM	6.66667 µM	10 µM	30 µM
24 h	2.48	6.78	32.9	53.3	64.8	70.3
48 h	1.98	4.75	20.8	48.9	65.8	86.6
72 h	3.11	3.43	18.8	39.1	63.9	101

Details	drug sensitivity score	relative viability EC50 [µM]
Caco-2 [10]	–	> 10
Caco-2 [11]	0.1	–
Calu-3 [14]	1.2	–
HepG2 [15]	1.1	–
HepG2 [20]	–	> 10
U2OS [13]	0	–
U2OS [18]	–	> 10
Vero E6 [12]	0	–
Vero E6 [17]	–	> 10
